Results as given in patent US10071100B2, “Therapeutic nanoparticles comprising a therapeutic agent and methods of making and using the same” (PFIZER INC., priority 2014, dated 2018).

What was measured:
physchem = assay type: physicochemical
Text: It is described in U.S. Pat. No. 8,039,469, the contents of which are incorporated by reference. […] As indicated above, it is a base. It is a protonatable nitrogen-containing therapeutic agent. As used herein, a “protonatable nitrogen-containing therapeutic agent” includes any pharmaceutically active agent that contains at least one nitrogen-containing functional group that is capable of being protonated. In other words, the therapeutic agent has a nitrogen atom thereon which has a lone pair of electrons that could potentially accept a proton. The pKa refers to the acid dissociation constant on a logarithmic scale of the corresponding protonated form of the therapeutic agent. In other words, if a proton (H+) were present at the nitrogen atoms where there is an arrow indicated, the therapeutic agent would have the pKa indicated below: […]

[1] = pKa (acid dissociation constant); assay type: physicochemical; details: protonated form of the therapeutic agent; read-out: first pKa
Text: It is described in U.S. Pat. No. 8,039,469, the contents of which are incorporated by reference. […] As indicated above, it is a base. It is a protonatable nitrogen-containing therapeutic agent. As used herein, a “protonatable nitrogen-containing therapeutic agent” includes any pharmaceutically active agent that contains at least one nitrogen-containing functional group that is capable of being protonated. In other words, the therapeutic agent has a nitrogen atom thereon which has a lone pair of electrons that could potentially accept a proton. The pKa refers to the acid dissociation constant on a logarithmic scale of the corresponding protonated form of the therapeutic agent. In other words, if a proton (H+) were present at the nitrogen atoms where there is an arrow indicated, the therapeutic agent would have the pKa indicated below:
The pKa information for the most basic nitrogen (bottom) and a less basic but still protonatable nitrogen (upper) are shown above. ACD is a calculated number using standard techniques known in the art, such as described in Liao C Z, Nicklaus M C. Comparison of nine programs predicting pK(a) values of pharmaceutical substances. J. Chem. Inform. Model. 49(12):2801-2812, 2009. It has to be understood that the pKa of the therapeutic agent refers to the protonated form thereof. […]

[2] = pharmacokinetics of nanoparticles in Wistar Han rats; assay type: in vivo; details: rat; male Wistar Han rats, intravenous 1 mg/kg bolus, plasma
Protocol: The protocol was as follows: Male Wistar Han rats (approximately six weeks in age; n=4/group) with indwelling jugular vein cannulae were dosed intravenously with a 1 mg/kg bolus of Formulation A, B, and C nanoparticles or Formulation A, B, and C nanoparticles diluted in 0.9% saline. At various times after dosing, serial blood collections were made from the jugular vein cannulae and plasma concentrations of therapeutic agent were quantitated by LC-MS/MS.

logD (physchem; pH 6.5): 0.212 | logD (physchem; pH 7.4): 1.08 | pKa [1]: ~6.7 | AUC [2]: 920 ng·h/mL | half-life [2]: 13.2 h
Compound: CN(C)C1CCN(C(=O)c2ccc(NC(=O)Nc3ccc(-c4nc(N5CCOCC5)nc(N5CCOCC5)n4)cc3)cc2)CC1 [therapeutic agent, 1-(4-{[4-(dimethylamino)piperidin-1-yl]carbonyl}phenyl)-3-[4-(4,6-dimorpholin-4-yl-1,3,5-triazin-2-yl)phenyl]urea]
